In patent publication US20230256092A1, “COMBINED USE OF ANTI-CCR8 ANTIBODY AND CHEMOTHERAPEUTIC AGENT” (Shionogi & Co., Ltd., priority 2020, published 2023):

Legend:
Assay type in all cases: in vivo, mouse
[1] = tested on: colon cancer-derived Colon26 cells; test: Example 5: Balb/c mice inoculated with Colon26 cells, oxaliplatin or 5-FU combination; conditions: antibody 50 μg iv day 5; oxaliplatin 5 mg/kg or 5-FU 30 mg/kg iv 1 hour later; oxaliplatin and antibody single 4, 7, 10, 12, 14, 17 days; 5-FU single only 7 days; combinations from 10 days; Mann-Whitney U
Experimental: The back of each Balb/c mouse (5 weeks old, female) was intracutaneously inoculated with 3.5×10^5 colon cancer-derived Colon26 cells (50 μL).
To an anti-mouse CCR8 antibody single administration group, 50 μg (200 μL) of an anti-mouse CCR8 antibody (clone SA214G2, BioLegend, Inc.) was intravenously administered 5 days after tumor inoculation, and saline was intravenously administered at a volume of 10 ml/kg body weight 1 hour after the administration of the anti-mouse CCR8 antibody (N=10).
To an oxaliplatin single administration group, 50 μg (200 μL) of an isotype control antibody was intravenously administered 5 days after tumor inoculation, and oxaliplatin (trade name: ELPLAT, Yakult Honsha Company, Limited) at 5 mg/kg body weight was intravenously administered at a volume of 10 mL/kg body weight 1 hour after the administration of the isotype control antibody (N=10). […]
Tumor volumes were measured every 2 to 3 days from 4 days after tumor inoculation (a day before antibody administration). The tumor volume (mm^3) was measured in long diameter (mm)×short diameter (mm)×short diameter (mm)/2, and a significant difference test based on a Mann-Whitney U method (significance level: P<0.05) was conducted.

[2] = tested on: colon cancer-derived Colon26 cells; test: Example 6: hCCR8-KI (KI/KI) mice inoculated with Colon26 cells, oxaliplatin combination; conditions: antibody 15 mg/kg iv day 5; oxaliplatin 5 mg/kg iv 3 hours later; single groups 4, 7, 10, 12, 14, 17, 18 days, combined from 7 days; Mann-Whitney U
Experimental: The back of each hCCR8-KI (KI/KI) mouse (12 weeks old, female) prepared in Test Example 10 was intracutaneously inoculated with 3.5×10^5 colon cancer-derived Colon26 cells (50 uL).
To an anti-human CCR8 antibody single administration group, an anti-human CCR8 antibody (humanized 10A11 antibody (light chain variable region: IGKV4-1 N53Q+G29R (SEQ ID NO: 59)/heavy chain variable region: IGHV3-15 T94R (SEQ ID NO: 41))) at 15 mg/kg body weight was intravenously administered 5 days after tumor inoculation, and saline was intravenously administered 3 hours after the administration of the anti-human CCR8 antibody (N=10). To an oxaliplatin single administration group, saline was intravenously administered 5 days after tumor inoculation, and oxaliplatin (trade name: ELPLAT, Yakult Honsha Company, Limited) at 5 mg/kg body weight was intravenously administered 3 hours after the administration of the saline (N=10). […] Tumor volumes were measured every 1 to 3 days from 4 days after tumor inoculation (a day before antibody administration). The tumor volume (mm^3) was measured in long diameter (mm)×short diameter (mm)×short diameter (mm)/2, and a significant difference test based on a Mann-Whitney U method (significance level: P<0.05) was conducted.

[3] = tested on: colon cancer-derived Colon26 cells; test: Example 11: hCCR8-KI (KI/KI) mice inoculated with Colon26 cells, oxaliplatin combination (Part 2); conditions: as Example 6; 2-7B part: oxaliplatin 10, 14, 17 days, antibody 14, 17 days; 19D7 part: oxaliplatin 10, 14 days, antibody 14 days; combinations from 10 days; Student's T one-sided
Experimental: To an oxaliplatin single administration group, saline was intravenously administered 5 days after tumor inoculation, and oxaliplatin (trade name: ELPLAT, Yakult Honsha Company, Limited) at 5 mg/kg body weight was intravenously administered 3 hours after the administration of the saline (N=10). To an anti-mouse CCR8 antibody and oxaliplatin combined administration group, an anti-human CCR8 antibody at 15 mg/kg body weight was intravenously administered 5 days after tumor inoculation, and oxaliplatin at 5 mg/kg body weight was intravenously administered 3 hours after the administration of the anti-mouse CCR8 antibody (N=10). To a control group, saline was intravenously administered 5 days after tumor inoculation, and saline was intravenously administered 3 hours after the administration of the saline (N=10). […] Tumor volumes were measured every 1 to 3 days from 4 days after tumor inoculation (a day before antibody administration). The tumor volume (mm^3) was measured in long diameter (mm)×short diameter (mm)×short diameter (mm)/2, and a significant difference test based on a Mann-Whitney U method (significance level: P<0.05) was conducted. […]

[4] = tested on: colon cancer-derived CT26 cells; test: Example 12: hCCR8-KI (KI/KI) mice inoculated with CT26 cells, 5-FU combination; conditions: antibody 0.1 mg/kg iv day 5; 5-FU 30 mg/kg iv 3 hours later; single groups 8, 12, 15 days, combined from 8 days; Mann-Whitney U
Experimental: The back of each hCCR8-KI (KI/KI) mouse (14 weeks old, female) prepared in Test Example 10 was intracutaneously inoculated with 3.5×10^5 colon cancer-derived CT26 cells (50 μL).
To an anti-human CCR8 antibody single administration group, an anti-human CCR8 antibody (humanized 10A11 antibody (light chain variable region: IGKV4-1 N53Q+G29R (SEQ ID NO: 59)/heavy chain variable region: IGHV3-15 T94R (SEQ ID NO: 41)) was intravenously administered at 0.1 mg/kg body weight 5 days after tumor inoculation, and saline was intravenously administered 3 hours after the administration of the anti-human CCR8 antibody (N=8). To a 5-FU single administration group, a saline was intravenously administered 5 days after tumor inoculation, and 5-FU (trade name: 5-FU INJECTION 250 KYOWA, Kyowa Hakko Kirin Co. Ltd) was intravenously administered at 30 mg/kg body weight 3 hours after the administration of the saline (N=8). […] Tumor volumes were measured every 3 to 4 days from […] after tumor inoculation (a day before antibody administration). The tumor volume (mm^3) was measured in long diameter (mm)×short diameter (mm)×short diameter (mm)/2, and a significant difference test based on a Mann-Whitney U method (significance level: P<0.05) was conducted.

| Structure (SMILES) | tumor volume as compared to the control group [1] | tumor volume as compared to the control group [2] | tumor volume as compared to the control group [3] | tumor volume as compared to the control group [4] |
| --- | --- | --- | --- | --- |
| O=C1[O][Pt]2([NH][C@@H]3CCCC[C@H]3[NH]2)[O]C1=O [oxaliplatin, reference compound] | no significant decrease | no significant decrease | no significant decrease | – |
| O=c1[nH]cc(F)c(=O)[nH]1 [5-FU, fluorouracil, reference compound] | significant decrease | – | – | no significant decrease |
